Data from ChEMBL document CHEMBL1201862, “PubChem BioAssay data set” (2004).
Calls of active or inactive are those of the source.

What was measured:
[1] = molecular target: T1, Carboxy-terminal domain RNA polymerase II polypeptide A small phosphatase 1 (Homo sapiens, UniProt Q9GZU7); assay: CTDSP1 inhibitors, concentration-response, biochemical, absorbance readout, ultra-high-throughput screen actives (AID 540297); format: functional
T1 sequence (Q9GZU7 whole entry): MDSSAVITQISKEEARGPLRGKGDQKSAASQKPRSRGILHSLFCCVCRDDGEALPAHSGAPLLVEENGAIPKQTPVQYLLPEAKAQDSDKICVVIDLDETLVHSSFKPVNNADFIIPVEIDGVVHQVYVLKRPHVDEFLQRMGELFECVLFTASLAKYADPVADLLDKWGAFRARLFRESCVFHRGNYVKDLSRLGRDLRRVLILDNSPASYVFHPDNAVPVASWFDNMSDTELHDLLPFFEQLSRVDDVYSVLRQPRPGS

[2] = molecular target: T2, Tyrosine-protein phosphatase non-receptor type 11 (Homo sapiens, UniProt Q06124); assay: PTPN11 enzyme inhibitors – biochemical, selectivity assay for STEP inhibitor project, dose response (AID 602367); format: functional; settings: read-out: IC50_Mean
T2 sequence (Q06124 whole entry): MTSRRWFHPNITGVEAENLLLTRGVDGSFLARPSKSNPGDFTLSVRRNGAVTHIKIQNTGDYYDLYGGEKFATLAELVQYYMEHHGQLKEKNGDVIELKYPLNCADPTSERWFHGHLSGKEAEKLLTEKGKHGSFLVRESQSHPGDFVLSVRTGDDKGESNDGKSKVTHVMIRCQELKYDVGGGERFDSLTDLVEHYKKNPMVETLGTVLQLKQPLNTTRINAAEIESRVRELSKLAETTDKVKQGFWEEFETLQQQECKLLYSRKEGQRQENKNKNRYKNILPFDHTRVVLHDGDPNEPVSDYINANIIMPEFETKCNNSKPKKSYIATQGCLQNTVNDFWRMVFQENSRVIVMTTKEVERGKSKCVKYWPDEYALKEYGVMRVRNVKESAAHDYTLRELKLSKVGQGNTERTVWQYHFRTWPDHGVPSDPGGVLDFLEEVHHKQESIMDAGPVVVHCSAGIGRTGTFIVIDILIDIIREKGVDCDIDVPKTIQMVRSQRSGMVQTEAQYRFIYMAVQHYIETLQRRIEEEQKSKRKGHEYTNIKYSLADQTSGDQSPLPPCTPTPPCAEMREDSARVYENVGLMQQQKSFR

[3] = molecular target: T3, Tyrosine-protein phosphatase non-receptor type 5 (Homo sapiens, UniProt P54829); assay: PTPN5 enzyme inhibition – biochemical, fluorescence intensity, uHTS hits, confirmation (AID 602372); format: functional; settings: read-out: IC50_Mean
T3 sequence (P54829 whole entry): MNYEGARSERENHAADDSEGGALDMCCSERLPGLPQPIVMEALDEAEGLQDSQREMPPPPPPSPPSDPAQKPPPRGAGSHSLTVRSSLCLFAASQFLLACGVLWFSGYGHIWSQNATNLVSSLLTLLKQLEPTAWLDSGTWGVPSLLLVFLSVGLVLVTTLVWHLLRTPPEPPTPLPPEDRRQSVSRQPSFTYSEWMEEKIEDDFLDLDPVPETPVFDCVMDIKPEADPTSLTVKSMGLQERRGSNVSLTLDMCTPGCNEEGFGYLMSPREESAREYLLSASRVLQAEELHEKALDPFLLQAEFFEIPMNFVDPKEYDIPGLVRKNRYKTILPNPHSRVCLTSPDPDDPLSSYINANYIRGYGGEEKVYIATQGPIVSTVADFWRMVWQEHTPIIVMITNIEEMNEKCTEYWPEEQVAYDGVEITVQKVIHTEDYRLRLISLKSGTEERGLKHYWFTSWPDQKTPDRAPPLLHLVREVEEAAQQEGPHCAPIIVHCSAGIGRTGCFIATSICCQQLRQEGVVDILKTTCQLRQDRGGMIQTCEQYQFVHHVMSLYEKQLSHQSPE

[4] = molecular target: Dual specificity protein phosphatase 3 (Homo sapiens, UniProt P51452); assay: VHR phosphatase inhibition, dose response, selectivity assay for STEP inhibitor project, biochemical (AID 602374); format: functional; settings: read-out: IC50_Mean
Sequence of Dual specificity protein phosphatase 3 (P51452 whole entry): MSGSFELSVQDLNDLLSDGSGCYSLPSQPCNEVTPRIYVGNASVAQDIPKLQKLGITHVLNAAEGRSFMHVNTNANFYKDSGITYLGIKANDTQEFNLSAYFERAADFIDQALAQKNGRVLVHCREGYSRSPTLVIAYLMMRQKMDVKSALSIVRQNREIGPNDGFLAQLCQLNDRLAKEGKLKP

[5] = molecular target: T4, Low molecular weight phosphotyrosine protein phosphatase (Homo sapiens, UniProt P24666); format: functional; settings: read-out: IC50_Mean
T4 sequence (P24666 whole entry): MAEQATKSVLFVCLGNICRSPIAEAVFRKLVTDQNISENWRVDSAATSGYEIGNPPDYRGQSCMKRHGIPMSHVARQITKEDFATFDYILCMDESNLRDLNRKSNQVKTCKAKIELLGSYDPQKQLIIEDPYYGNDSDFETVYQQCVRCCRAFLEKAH

[6] = molecular target: T4, Low molecular weight phosphotyrosine protein phosphatase; format: functional; settings: read-out: IC50_Mean; remark: listed apart in the source
BJ [7] = assay: BJ-TERT fibroblast viability loss – cell-based, RAS-independent, luminescence, dose response (AID 1933); format: functional; settings: Homo sapiens
[8] = Luminescence Cell-Based Dose Response HTS to Identify Inhibitors of 5'UTR Stem-Loop Driven Prion Protein mRNA Translation in H4 Neuroglioblastoma Cells. [Related pubchem assays: 1827 (Project Summary), 1813 (Primary HTS)]; format: functional
[9] = alpha-synuclein stem-loop luciferase translation blockers – H4 neuroglioma cells, luminescence, confirmation (AID 1988); format: functional, cell-based
BJ [10] = assay: cells; format: functional, cell-based; settings: Homo sapiens
BJ [11] = assay: BJ-TERT-LT-ST fibroblast viability loss – cell-based, RAS-independent, luminescence, dose response (AID 1935); format: functional; settings: Homo sapiens;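 note: BJ fibroblasts immortalized with TERT plus LT and ST oncogenes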
[12] = DRD fibroblast viability loss – cell-based, non-viral oncogenic, luminescence, dose response (AID 1934); format: functional; settings: Homo sapiens
HEK293 = assay: EBV LMP1 TES2 canonical NF-kB signalling blockers – cell-based, HEK293, luciferase, cherry-pick, dose response (AID 588343); format: functional; settings: Homo sapiens
cells [13] = format: functional, cell-based
[14] = molecular target: T5, Nuclear receptor subfamily 0 group B member 1 (Homo sapiens, UniProt P51843); format: functional, cell-based;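 note: HEK293T cells transfected with SF-1 and DAX-1 plus StAR promoter luciferase reporter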
T5 sequence (P51843 whole entry): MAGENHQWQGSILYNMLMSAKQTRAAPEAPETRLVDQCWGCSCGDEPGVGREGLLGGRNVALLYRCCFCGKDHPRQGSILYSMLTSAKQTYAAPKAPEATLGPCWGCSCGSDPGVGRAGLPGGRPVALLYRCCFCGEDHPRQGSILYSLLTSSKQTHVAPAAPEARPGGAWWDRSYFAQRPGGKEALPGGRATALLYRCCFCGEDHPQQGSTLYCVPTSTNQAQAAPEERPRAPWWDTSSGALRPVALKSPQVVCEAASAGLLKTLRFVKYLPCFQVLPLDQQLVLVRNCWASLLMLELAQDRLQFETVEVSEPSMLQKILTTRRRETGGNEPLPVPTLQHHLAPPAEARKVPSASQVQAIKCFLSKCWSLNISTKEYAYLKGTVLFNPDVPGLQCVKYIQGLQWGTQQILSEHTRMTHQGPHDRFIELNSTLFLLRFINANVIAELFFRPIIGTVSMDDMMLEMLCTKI

[15] = A549 cell cytotoxicity, dose response, cytotoxicity control, plate reader, cherry-pick, antagonist series (AID 743412); format: functional, cell-based
[16] = toxicity toward HepG2 liver cells – cell-based, plate reader, cherry-pick, antagonist series, cytotoxicity control, dose response (AID 743416); format: functional
[17] = blockers of bursicon-stimulated LGR2 cAMP reporter – cell-based, HEK293, CRE-luciferase reporter, cherry pick, set 2, dose response (AID 743343); format: functional;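 note: transfected cells were stimulated with diluted bursicon conditioned medium after compound addition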
[18] = blockade of melanocortin 4 receptor signaling – cell-based, plate reader, cherry pick, counter-screen for LGR2 antagonist project, dose response (AID 743444); format: functional;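 note: transfected HEK 293 cells stimulated with alpha-MSH peptide; potency of inhibitors of the alpha-MSH evoked signal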
[19] = viability loss in HEK293 cells – cell-based, plate reader, cherry-picked samples, cytotoxicity control, dose response (AID 743446); format: functional
[20] = Luminescence Cell-Based Dose Retest to Confirm Inhibitors of Cancer Stem Cells. [Related pubchem assays (depositor defined):AID2717, AID2721]; format: functional; settings: Homo sapiens
[21] = potency of ADAM10 substrate cleavage blockers – biochemical, QFRET, dose response (AID 743254);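 note: ADAM10 enzyme with the DM2 quenched FRET peptide as substrate; EDANS fluorescence gain as the protease cuts the substrate; inhibitor potency against ADAM10 proteolytic activity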
[22] = molecular target: Disintegrin and metalloproteinase domain-containing protein 17 (Homo sapiens, UniProt P78536); assay: inhibition of ADAM17 substrate cleavage – biochemical, quenched FRET substrate, counter-screen for ADAM10 exosite inhibitor project, dose response (AID 743253)
Sequence of Disintegrin and metalloproteinase domain-containing protein 17 (P78536 whole entry, the tested form may be a part): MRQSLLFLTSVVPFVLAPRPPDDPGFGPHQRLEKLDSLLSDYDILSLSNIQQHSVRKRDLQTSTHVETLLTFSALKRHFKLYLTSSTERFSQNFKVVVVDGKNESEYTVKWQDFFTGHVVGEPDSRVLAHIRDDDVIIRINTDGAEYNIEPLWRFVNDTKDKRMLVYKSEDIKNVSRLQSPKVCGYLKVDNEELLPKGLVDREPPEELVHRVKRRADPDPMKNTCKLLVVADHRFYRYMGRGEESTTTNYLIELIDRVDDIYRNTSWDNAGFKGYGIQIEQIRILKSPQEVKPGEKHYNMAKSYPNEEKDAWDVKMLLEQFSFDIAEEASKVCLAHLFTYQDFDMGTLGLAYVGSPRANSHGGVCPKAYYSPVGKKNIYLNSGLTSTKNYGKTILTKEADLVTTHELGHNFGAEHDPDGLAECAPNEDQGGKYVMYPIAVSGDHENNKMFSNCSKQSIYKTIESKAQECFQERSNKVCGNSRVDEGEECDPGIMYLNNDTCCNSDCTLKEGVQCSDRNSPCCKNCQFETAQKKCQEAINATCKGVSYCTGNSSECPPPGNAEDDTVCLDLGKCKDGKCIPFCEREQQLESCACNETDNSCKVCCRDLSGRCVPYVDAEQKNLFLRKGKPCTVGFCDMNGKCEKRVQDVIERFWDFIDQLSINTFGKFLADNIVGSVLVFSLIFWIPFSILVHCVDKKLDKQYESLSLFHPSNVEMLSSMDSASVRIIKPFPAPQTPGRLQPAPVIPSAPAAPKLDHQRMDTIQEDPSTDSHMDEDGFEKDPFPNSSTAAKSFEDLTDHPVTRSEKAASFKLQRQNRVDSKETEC

cells [23] = format: functional, cell-based; remark: listed apart in the source
[24] = molecular target: T6, Trace amine-associated receptor 1 (Homo sapiens, UniProt Q96RJ0); assay: Fluorescence-based cell-based high throughput dose response assay to identify agonists of the human trace amine associated receptor 1 (TAAR1).; format: functional
T6 sequence (Q96RJ0 whole entry): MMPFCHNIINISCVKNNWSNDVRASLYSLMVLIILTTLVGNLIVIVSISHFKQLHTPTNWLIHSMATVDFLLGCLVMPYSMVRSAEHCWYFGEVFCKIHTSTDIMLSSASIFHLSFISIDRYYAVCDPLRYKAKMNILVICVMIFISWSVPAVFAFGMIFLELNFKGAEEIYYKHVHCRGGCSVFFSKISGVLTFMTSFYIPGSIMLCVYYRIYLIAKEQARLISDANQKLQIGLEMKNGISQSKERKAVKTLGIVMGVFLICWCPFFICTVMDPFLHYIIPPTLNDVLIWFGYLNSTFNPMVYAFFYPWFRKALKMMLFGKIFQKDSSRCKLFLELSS

[25] = molecular target: T6, Trace amine-associated receptor 1; assay: Counterscreen for agonists of the human trace amine associated receptor 1 (hTAAR1): Fluorescence-based cell-based high throughput dose response assay to identify hTAAR1 agonist that also desensitize TAAR1 receptor response.; format: functional
cells [26] = format: functional, cell-based; remark: listed apart in the source
Mu-type opioid receptor = Mu-type opioid receptor (Homo sapiens, UniProt P35372); format: functional, cell-based;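 note: U2OS cells with beta-arrestin recruitment to OPRM1 by beta-gal complementation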
Sequence of Mu-type opioid receptor (P35372 whole entry): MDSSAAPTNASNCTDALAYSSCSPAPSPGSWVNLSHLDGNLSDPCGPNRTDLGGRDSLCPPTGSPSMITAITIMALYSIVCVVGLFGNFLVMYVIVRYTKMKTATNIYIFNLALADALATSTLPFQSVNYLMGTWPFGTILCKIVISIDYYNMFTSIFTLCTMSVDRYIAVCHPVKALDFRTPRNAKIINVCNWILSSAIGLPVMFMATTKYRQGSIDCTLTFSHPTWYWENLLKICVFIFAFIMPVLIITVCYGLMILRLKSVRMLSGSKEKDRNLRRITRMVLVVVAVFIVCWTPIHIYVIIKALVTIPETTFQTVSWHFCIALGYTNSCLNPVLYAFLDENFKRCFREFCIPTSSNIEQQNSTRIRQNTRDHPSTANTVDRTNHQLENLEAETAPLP

[27] = molecular target: 5-hydroxytryptamine receptor 2A (Mus musculus, UniProt P35363); format: functional, cell-based;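 note: CHO-K1 cells with tagged receptor and beta-arrestin; agonist potency measured as compound-induced activation of the receptor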
Sequence of 5-hydroxytryptamine receptor 2A (P35363 whole entry): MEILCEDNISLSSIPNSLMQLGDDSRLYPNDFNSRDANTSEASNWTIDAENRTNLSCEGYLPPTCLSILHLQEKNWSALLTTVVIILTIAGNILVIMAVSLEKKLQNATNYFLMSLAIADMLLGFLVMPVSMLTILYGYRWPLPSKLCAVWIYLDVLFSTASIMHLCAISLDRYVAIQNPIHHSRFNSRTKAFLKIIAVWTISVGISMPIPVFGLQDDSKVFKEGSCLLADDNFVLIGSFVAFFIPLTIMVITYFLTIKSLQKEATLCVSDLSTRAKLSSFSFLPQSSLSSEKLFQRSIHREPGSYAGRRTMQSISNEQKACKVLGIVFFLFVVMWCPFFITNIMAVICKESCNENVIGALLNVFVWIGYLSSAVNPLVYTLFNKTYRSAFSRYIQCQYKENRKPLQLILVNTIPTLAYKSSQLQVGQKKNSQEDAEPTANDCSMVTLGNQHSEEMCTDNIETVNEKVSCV

[28] = molecular target: T7, Long-chain-fatty-acid--AMP ligase FadD28 (Mycobacterium tuberculosis, UniProt P9WQ59); assay: Fluorescence polarization aasay to screen for inhibitors that compete for the binding of FadD28 to a bisubstrate Measured in Biochemical System Using Plate Reader - 2147-01_Inhibitor_Dose_CherryPick_Activity.; format: functional, Mycobacterium tuberculosis H37Rv
T7 sequence (P9WQ59 whole entry): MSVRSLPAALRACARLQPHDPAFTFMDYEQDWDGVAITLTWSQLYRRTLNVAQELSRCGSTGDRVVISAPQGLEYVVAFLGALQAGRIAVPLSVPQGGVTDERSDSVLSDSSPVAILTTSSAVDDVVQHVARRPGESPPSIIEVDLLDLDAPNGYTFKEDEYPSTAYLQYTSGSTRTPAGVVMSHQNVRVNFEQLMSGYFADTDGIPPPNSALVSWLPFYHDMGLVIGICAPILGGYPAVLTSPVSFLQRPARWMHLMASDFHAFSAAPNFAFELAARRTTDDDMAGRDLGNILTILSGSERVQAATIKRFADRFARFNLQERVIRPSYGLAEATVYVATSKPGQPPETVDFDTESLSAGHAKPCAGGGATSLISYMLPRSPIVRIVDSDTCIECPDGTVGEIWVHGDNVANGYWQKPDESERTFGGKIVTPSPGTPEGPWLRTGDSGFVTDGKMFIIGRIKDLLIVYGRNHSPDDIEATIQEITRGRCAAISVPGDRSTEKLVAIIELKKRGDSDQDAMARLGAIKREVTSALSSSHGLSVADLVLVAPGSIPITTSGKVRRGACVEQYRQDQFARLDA

O=C(COc1ccc(/C=N/NC(=O)c2ccccc2O)cc1)Nc1ccccc1
IC50 [1]: 5.32 µM (active) | IC50 [2]: 4.22 µM (active) | IC50 [3]: 11.7 µM (active) | IC50 [4]: 3.88 µM (active) | IC50 [5]: 16.4 µM (active) | IC50 [6]: 39.9 µM (inactive)

COc1ccc(-c2ccc(NC(=O)c3ccco3)cc2)nn1
EC50 (BJ [7]): 5.74 µM (active) | EC50 [8]: 4.34 µM (active) | EC50 [9]: 5.37 µM (active) | EC50 (BJ [10]): 10.1 µM (active) | EC50 (BJ [11]): 21.8 µM (active) | EC50 [12]: 7.33 µM (active) | AC50 (HEK293): 1.51 µM (active) | IC50 (cells [13]): > 67.6 µM (inactive) | IC50 [14]: > 67.6 µM (inactive) | AC50 [15]: 11.1 µM (active) | AC50 [16]: 15.2 µM (active) | AC50 [17]: 3.8 µM (active) | AC50 [18]: 3.59 µM (active) | AC50 [19]: 21.9 µM (active)

Cc1ccc(S(=O)(=O)Nc2ccc(-c3nnc(SCc4ccccc4Cl)o3)cc2)cc1
AC50 [20]: 3.88 µM (active) | IC50 [21]: > 69.5 µM (inactive) | IC50 [22]: > 69.5 µM (inactive)

COc1ccc(CNCCc2ccccc2F)c(OC)c1C
IC50 (cells [23]): > 29.9 µM (inactive) | EC50 [24]: 0.498 µM (active) | IC50 [25]: 3.46 µM (active) | EC50 (cells [26]): > 29.9 µM (inactive)

CCCCCCCCN1C(=O)[C@@H](CC(=O)NCCc2ccccc2OC)C[C@@]2(C(=O)OC)C1=C[C@H](C(C)(C)C)O[C@@H]2C
IC50 (cells [23]): > 29.9 µM (inactive) | EC50 [24]: 5.23 µM (active) | IC50 [25]: 6.93 µM (active) | EC50 (cells [26]): > 29.9 µM (inactive)

CCc1ccc(CN2CCN(C(=O)c3ccco3)CC2)cc1
EC50 (Mu-type opioid receptor): 92.5 µM (inactive) | EC50 [27]: 0.219 µM (active)

O=C(c1ccco1)N1CCN(Cc2ccc(F)cc2)CC1
EC50 (Mu-type opioid receptor): 92.5 µM (inactive) | EC50 [27]: 7.5 µM (active)

NS(=O)(=O)c1ccc(NCc2cc(Cl)ccc2OCc2ccccc2F)cc1
IC50 [21]: 10.9 µM (inactive) | IC50 [22]: > 69.5 µM (inactive)

COC(=O)c1ccc(COc2ccc(/C=N/Nc3cccc(C(=O)O)c3)cc2)cc1
AC50 [28]: 48.9 µM (active)

O=C(NCCc1ccccc1)c1nc(C(F)(F)F)[nH]c1-c1ccccc1
IC50 (cells [23]): > 29.9 µM (inactive) | EC50 [24]: 4.78 µM (active) | IC50 [25]: 9.43 µM (active) | EC50 (cells [26]): > 29.9 µM (inactive)

CCCCC(=O)Nc1ccc(C(=O)NNC(=O)c2ccc(C)c(Br)c2)cc1
IC50 [1]: 10.2 µM (active) | IC50 [2]: 3.17 µM (active) | IC50 [3]: 28 µM (inactive) | IC50 [4]: 4.58 µM (active) | IC50 [5]: 16.6 µM (active) | IC50 [6]: 17.2 µM (active)

COC(=O)Nc1nc2ccc(C(=O)c3cccs3)cc2[nH]1 [NOCODAZOLE]
IC50 [14]: > 0.833 µM (active)
